Test system: IL-6-induced STAT1 phosphorylation
Experiment: Whole blood assay, IL-6 stimulation, phospho-STAT1 by FACS
Assay type: cell-based
Details: human whole blood, CD4+ cells, 9 different donors
Procedure: In addition, a flow cytometry analysis was performed to establish JAK1 over JAK2 compound selectivity ex vivo using human whole blood. Therefore, blood was taken from human volunteers who gave informed consent. Blood was then equilibrated for 30 min at 37° C. under gentle rocking, then aliquoted in Eppendorf tubes. Compound was added at different concentrations and incubated at 37° C. for 30 min under gentle rocking and subsequently stimulated for 20 min at 37° C. under gentle rocking with interleukin 6 (IL-6) for JAK1-dependent pathway stimulation or GM-CSF for JAK2-dependent pathway stimulation. Phospho-STAT1 and phospho-STAT5 were then evaluated using FACS analysis.
For IL-6-stimulated increase of Signal Transducers and Activators of Transcription 1 (pSTAT1) phosphorylation in white blood cell, human whole blood, drawn from human volunteers who gave informed consent, was ex vivo treated with the compound for 30 min and subsequently stimulated for 20 min with IL-6. The increase in phosphorylation of STAT1 by IL-6 in lymphocytes was measured using anti phospho-STAT1 antibody by FACS. […]
Cells are then washed once with 1×PBS and analyzed on a FACSCanto II flow cytometer (BD Biosciences).
50,000 total events were counted and Phospho-STAT1 positive cells were measured after gating on CD4+ cells, in the lymphocyte gate. […]

IC50: 498 nM
Structure (SMILES): CCc1cc(C2CN(S(C)(=O)=O)C2)ncc1N(C)c1cc2c(cn1)ncn2C [Compound 1, [4-Ethyl-6-(1-methanesulfonyl-azetidin-3-yl)-pyridin-3-yl]-methyl-(1-methyl-1H-imidazo[4,5-d]pyridin-6-yl)-amine]
